ChEMBL document CHEMBL1201862, “PubChem BioAssay data set” (2004)
The source made the active and inactive calls.

How the values were obtained:
[1] = target: T1, Heat shock factor protein 1 (Mus musculus, UniProt P38532); assay: inhibition of MG132-induced HSE-luciferase signal, confirmation, cell-based, NIH3T3, luminescence, dose retest (AID 2382); assay type: functional;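 note: NIH3T3 fibroblasts with HSF1-driven luciferase reporter stressed by proteasome inhibitor MG132; luminescence from HSF1-driven luciferase expression after 8 hours of MG132 stress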
T1 sequence (P38532 whole entry): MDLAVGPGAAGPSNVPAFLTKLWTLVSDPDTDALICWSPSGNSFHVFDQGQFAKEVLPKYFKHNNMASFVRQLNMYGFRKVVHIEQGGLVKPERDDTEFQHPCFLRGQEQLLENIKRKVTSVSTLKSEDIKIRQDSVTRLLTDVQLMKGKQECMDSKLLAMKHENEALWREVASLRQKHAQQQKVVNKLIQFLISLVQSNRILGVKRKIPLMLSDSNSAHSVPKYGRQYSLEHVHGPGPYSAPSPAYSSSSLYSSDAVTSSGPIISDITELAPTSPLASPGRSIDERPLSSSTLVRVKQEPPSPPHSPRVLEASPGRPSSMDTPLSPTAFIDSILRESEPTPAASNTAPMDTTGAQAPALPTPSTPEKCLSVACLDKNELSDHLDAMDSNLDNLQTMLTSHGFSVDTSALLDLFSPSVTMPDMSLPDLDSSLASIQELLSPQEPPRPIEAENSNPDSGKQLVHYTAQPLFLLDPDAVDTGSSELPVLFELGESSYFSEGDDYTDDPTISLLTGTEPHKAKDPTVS

[2] = test system: Streptococcus; assay: Group A Streptococcus viability loss, dose response, counter-screen for streptokinase expression inhibitor project, luminescence, BacTiterGlo (AID 1915); assay type: functional, organism-based;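 note: potency for reduction of bacterial viability or growth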
[3] = test system: Streptococcus sp. 'group A'; assay: growth inhibition of control SK(-) GAS strain, dose response, counter-screen for streptokinase expression inhibitor project, luminescence, kanamycin, BacTiterGlo, confirmation (AID 1900); assay type: functional, organism-based
[4] = target: T2, Hexokinase-1 (Homo sapiens, UniProt P19367); assay: SAR analysis of small molecule inhibitors of hexokinase domain containing I (HKDC1) in the hexokinase 1 selectivity assay. [Related pubchem assays (depositor defined):AID493160, AID493190]; assay type: functional
T2 sequence (P19367 whole entry): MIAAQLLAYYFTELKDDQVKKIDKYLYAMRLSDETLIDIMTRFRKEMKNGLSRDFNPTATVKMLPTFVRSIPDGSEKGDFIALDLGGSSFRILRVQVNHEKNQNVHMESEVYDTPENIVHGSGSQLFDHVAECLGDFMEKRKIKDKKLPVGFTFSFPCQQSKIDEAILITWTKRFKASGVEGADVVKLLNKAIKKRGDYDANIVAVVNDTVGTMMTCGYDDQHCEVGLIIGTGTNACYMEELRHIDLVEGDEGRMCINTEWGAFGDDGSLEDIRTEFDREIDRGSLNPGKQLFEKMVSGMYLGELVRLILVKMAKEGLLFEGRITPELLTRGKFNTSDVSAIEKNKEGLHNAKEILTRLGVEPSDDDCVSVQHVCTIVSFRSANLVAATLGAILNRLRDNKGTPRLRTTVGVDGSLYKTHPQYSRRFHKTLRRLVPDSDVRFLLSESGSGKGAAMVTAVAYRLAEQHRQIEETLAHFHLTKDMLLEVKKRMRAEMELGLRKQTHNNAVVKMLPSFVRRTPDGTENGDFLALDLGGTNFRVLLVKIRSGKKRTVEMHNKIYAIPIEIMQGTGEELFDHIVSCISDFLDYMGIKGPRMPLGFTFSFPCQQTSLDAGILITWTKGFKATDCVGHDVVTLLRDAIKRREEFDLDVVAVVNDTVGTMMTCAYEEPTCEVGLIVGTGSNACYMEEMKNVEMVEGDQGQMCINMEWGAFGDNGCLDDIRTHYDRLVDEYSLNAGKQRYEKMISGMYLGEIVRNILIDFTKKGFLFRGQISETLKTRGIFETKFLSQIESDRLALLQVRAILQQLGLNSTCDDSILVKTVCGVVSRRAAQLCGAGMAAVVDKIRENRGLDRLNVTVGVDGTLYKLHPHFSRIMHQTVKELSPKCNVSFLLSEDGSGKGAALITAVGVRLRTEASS

[5] = target: Cystic fibrosis transmembrane conductance regulator/Golgi-associated PDZ and coiled-coil motif-containing protein (Homo sapiens, UniProt P13569+Q9HD26); assay: CAL PDZ peptide-binding inhibitors, dose response, biochemical, fluorescence polarization, Cerulean-tagged CAL PDZ, cherry-picks (AID 504773)
[6] = test system: INS1; assay: beta cell apoptosis inhibitors, cytokine rescue, dose response, luminescence, retest (AID 449756); assay type: functional, cell-based; conditions: Rattus norvegicus;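 note: cell death triggered by IL-1 beta plus TNF-alpha plus IFN-gamma mixture; protective hits raise ATP signal compared with cytokine alone wells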
[7] = target: Histone-lysine N-methyltransferase NSD2 (Homo sapiens, UniProt O96028); assay type: biochemical
[8] = target: Nonstructural protein 1 (Influenza A virus, UniProt Q194T2); assay type: functional, Influenza A virus (A/California/07/2009(H1N1))
[9] = target: Heat shock protein HSP 90-alpha (Homo sapiens, UniProt P07900); assay: Luminescence-based dose response biochemical high throughput screening assay for inhibitors of the Heat Shock Protein 90 (HSP90). [Related pubchem assays: 1831 (Summary AID.), 1846 (Confirmation screen.), 1789 (Primary screen.)]
[10] = THP-1 cell cytotoxicity, dose response, cytotoxicity control for Vif-APOBEC3G degradation inhibitor project, THP-1 cells (AID 1117359); assay type: functional; conditions: Human immunodeficiency virus 1, THP-1
[11] = inhibitors of intracellular T. cruzi replication, confirmation, NIH3T3 host cells, beta-gal luminescence (AID 2044); assay type: functional, cell-based;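 note: intracellular parasites grown in NIH/3T3 mouse fibroblasts as host cells; luminescent beta-galactosidase reporter signal from transgenic T. cruzi replicating inside host cells; inhibitors lower the luminescence signal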
[12] = test system: Vero; assay: Vero cell cytotoxicity, cytotoxicity control for flavivirus capping enzyme inhibitors (AID 588742); assay type: functional; conditions: Chlorocebus sabaeus
[13] = target: Beta-arrestin-1 (Homo sapiens, UniProt P49407); assay: inhibitors of arrestin peptide binding to AP2, dose response, biochemical, cherry pick 1, beta2-adaptin appendage, flow cytometry (AID 588783); assay type: functional
[14] = HEp-2 cell cytotoxicity, dose response, cytotoxicity control for RSV inhibitor project, HTS (AID 2410); assay type: functional; conditions: human respiratory syncytial virus
[15] = target: Induced myeloid leukemia cell differentiation protein Mcl-1 (Homo sapiens, UniProt Q07820); assay type: functional
Induced myeloid leukemia cell differentiation protein Mcl-1, sequence (Q07820 whole entry): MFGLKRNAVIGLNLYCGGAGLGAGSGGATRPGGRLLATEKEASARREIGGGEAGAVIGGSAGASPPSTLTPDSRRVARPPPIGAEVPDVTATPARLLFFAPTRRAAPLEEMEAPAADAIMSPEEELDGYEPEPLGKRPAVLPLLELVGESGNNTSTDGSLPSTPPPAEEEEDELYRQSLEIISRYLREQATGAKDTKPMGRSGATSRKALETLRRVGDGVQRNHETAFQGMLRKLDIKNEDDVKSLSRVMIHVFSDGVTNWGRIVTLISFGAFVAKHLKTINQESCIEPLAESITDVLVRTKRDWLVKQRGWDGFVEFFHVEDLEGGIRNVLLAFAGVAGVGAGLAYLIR

Nonstructural protein 1, sequence (Q194T2 whole entry): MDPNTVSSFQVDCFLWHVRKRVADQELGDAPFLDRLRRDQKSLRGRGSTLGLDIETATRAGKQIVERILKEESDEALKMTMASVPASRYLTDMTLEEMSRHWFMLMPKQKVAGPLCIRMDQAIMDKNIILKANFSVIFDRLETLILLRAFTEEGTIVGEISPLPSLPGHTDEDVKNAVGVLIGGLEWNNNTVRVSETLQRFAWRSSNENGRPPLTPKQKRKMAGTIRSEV
Cystic fibrosis transmembrane conductance regulator/Golgi-associated PDZ and coiled-coil motif-containing protein, sequence (P13569 whole entry, other chains not shown): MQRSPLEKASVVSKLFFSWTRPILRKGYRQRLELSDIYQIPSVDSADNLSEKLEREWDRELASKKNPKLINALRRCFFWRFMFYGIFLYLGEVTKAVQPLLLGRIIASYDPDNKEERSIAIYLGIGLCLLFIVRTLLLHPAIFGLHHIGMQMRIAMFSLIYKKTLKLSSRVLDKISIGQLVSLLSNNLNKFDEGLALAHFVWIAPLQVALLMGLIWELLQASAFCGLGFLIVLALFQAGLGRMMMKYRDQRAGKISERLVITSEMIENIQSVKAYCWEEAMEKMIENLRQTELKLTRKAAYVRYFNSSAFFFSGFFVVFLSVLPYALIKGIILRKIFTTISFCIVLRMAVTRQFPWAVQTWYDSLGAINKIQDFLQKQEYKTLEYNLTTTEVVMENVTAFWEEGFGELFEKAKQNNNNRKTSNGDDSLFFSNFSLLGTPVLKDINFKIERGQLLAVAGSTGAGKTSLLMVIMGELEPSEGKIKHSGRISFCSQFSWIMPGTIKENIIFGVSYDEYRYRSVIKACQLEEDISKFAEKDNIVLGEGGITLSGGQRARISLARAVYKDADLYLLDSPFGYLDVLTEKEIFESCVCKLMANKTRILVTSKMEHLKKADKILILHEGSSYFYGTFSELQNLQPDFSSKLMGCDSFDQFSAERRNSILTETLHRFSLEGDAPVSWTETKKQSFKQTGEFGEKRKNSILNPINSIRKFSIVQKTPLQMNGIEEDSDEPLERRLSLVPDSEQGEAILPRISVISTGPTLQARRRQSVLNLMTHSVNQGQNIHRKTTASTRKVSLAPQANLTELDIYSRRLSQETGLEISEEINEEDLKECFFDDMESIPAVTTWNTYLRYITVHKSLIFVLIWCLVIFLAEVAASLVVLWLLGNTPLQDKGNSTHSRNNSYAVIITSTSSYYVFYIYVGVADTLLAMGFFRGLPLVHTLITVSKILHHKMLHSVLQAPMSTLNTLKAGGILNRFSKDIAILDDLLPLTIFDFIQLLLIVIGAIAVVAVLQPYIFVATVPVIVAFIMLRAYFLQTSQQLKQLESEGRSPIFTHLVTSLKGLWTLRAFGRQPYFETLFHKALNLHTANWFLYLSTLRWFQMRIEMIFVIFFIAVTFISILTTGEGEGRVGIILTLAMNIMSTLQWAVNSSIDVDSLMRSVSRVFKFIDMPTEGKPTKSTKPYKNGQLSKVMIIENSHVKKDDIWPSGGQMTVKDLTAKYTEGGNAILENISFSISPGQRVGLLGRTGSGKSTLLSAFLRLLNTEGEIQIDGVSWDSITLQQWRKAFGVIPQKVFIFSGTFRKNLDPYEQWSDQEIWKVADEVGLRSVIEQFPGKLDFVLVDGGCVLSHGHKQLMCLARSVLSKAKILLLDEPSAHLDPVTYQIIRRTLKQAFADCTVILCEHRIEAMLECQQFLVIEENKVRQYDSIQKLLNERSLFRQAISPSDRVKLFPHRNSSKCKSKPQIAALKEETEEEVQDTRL
Histone-lysine N-methyltransferase NSD2, sequence (O96028 whole entry): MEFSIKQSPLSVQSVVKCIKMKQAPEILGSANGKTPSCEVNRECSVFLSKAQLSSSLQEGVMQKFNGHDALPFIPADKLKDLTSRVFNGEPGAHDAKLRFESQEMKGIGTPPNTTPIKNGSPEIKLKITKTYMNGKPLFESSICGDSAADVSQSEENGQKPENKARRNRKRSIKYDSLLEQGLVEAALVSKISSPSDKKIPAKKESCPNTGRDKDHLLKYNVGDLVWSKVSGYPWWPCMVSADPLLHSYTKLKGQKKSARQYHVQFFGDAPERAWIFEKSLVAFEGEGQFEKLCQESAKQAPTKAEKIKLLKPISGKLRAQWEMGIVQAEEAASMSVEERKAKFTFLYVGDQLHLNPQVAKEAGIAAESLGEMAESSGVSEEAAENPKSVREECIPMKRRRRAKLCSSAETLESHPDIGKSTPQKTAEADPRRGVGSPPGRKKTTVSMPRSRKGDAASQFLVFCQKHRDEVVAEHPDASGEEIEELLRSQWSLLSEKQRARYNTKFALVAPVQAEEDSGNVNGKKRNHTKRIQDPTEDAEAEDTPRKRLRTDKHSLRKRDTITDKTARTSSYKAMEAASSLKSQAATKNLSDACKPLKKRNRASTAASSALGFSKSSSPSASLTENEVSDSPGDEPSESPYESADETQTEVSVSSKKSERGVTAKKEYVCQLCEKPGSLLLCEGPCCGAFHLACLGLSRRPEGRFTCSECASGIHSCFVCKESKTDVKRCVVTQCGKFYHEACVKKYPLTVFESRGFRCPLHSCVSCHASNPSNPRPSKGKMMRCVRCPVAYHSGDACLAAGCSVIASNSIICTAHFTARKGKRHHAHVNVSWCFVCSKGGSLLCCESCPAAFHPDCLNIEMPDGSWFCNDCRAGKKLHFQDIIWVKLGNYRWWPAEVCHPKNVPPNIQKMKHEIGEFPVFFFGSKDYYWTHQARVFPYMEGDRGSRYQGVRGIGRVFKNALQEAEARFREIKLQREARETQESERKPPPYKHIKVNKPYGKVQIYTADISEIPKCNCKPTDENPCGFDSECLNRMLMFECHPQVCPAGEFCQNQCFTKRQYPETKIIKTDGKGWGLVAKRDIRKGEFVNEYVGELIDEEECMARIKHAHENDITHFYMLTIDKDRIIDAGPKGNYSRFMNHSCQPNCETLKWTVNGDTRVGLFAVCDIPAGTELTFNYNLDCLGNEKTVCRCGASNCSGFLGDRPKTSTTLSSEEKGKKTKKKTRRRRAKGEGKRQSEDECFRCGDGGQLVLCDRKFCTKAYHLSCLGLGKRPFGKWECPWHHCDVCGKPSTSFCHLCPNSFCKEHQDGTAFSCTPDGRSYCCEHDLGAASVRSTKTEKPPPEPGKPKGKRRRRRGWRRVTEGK
Beta-arrestin-1, sequence (P49407 whole entry): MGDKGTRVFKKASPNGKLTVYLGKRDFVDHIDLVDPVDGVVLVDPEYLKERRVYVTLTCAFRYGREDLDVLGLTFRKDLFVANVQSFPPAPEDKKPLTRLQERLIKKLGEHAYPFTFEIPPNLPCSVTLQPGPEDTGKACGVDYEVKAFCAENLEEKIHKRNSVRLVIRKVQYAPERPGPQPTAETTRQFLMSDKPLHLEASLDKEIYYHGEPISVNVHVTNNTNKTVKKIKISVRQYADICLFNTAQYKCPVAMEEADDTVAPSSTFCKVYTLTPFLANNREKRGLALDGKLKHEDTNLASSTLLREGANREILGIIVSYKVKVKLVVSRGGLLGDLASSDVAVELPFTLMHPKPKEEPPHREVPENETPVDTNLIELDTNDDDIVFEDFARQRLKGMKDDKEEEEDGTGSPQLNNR

For `O=C(O)c1ccc(N/N=C/c2ccc(OC(=O)c3ccccc3Cl)cc2)cc1`, the EC50 [1] was 0.167 µM (active), the EC50 [2] was 131 µM (active) and the EC50 [3] was 2.91 µM (active).
With `O=c1c2ccccc2nc(/C=C/c2cccnc2)n1Cc1ccccc1` the IC50 [4] was > 80 µM (inactive) and the AC50 [5] was 23.5 µM (active).
For `COC(=O)c1ccccc1NC1=C/C(=N\S(=O)(=O)c2ccc(C(=O)O)cc2)c2ccccc2C1=O`, the AC50 [6] was 3.34 µM (active), the AC50 [7] was 0.557 µM (active) and the IC50 [8] was 31.8 µM (active). For the same compound, the IC50 [9] was 1.26 µM (active).
In the case of `NC(=O)C1CCN(C2=C(Cl)C(=O)c3ccccc3C2=O)CC1`, the CC50 [10] is reported as 9.71 µM (active), the EC50 [11] is reported as 2.18 µM (active) and the CC50 [12] is reported as 22.3 µM (active). The IC50 [13] was 22.2 µM (inactive), the CC50 [14] was 7.88 µM (active) and the IC50 [15] was > 54 µM (not active).
